This is an account of results in patent US8835484B2, “Naphthocyanines for use as contrast agents” (Alamedics GmbH & Co. KG, priority 2010, dated 2014).

The nature of data set [1]: Fluorescence quantum yield. The following applies: CHCl3; Reference: S-13 with Φ=1.00. The class given is physicochemical. The text has this:
IR spectra: Perkin Elmer Spectrum BX II, using a diamond anvil cell; UV/Vis spectra: Varian Cary 5000 and Bruins Omega 20; fluorescence spectra: Varian Eclispe; NMR spectroscopy: Varian Vnmrs 600 (600 MHz, 400 MHz, 200 MHz); mass spectrometry: Thermo Finnigan LQT FT.

The nature of data set [2]: Solid cyanine dye stability comparison. The format is physicochemical. The following applies: storage. From the text:
Decomposition of the solid dye results in a red coloration of the solid and the solution. Carboxylic acid esters, especially methyl ester, are particularly sensitive in addition to the bromides.

For the next data set, the system named is lens capsule. The data set is described as follows: Dye tests on porcine eyes (lens capsule staining). On the set-up: key: +++: visually assessed very strong coloration; ++: good coloration; +: satisfactory coloration; −: weak or absent coloration. The following applies: incubated, rinsed after one minute. The protocol: For the dye test, in each case 5 mg dye was dissolved in 500 μL ethanol and diluted to 2 mL with BSS Plus solution as the stock solution, and then correspondingly further diluted. As an alternative, one can prepare stock solutions of the dye by dissolving, for example, 5 mg dye in 1 mL distilled water, adding 7 mL BSS solution and then combining with 1 mL NaCl solution having an osmolality of 620 (approximately 2%) in order to restore the original osmolality of the BSS solution (308). This stock solution can be correspondingly further diluted with BSS solution as required. Enucleated porcine eyes were used having a post mortem time period of a few hours. To dye the lens capsule, the cornea was first removed. Thereafter, the iris was resected and the capsular support was severed. The lens with intact lens capsule was removed and placed in a bowl filled with BSS. The lenses were thereafter incubated with the dyes according to the invention at various concentrations and then rinsed after one minute. The dye pattern was photographically documented, whereby the coloration was assessed without additional illumination, and fluorescence was assessed with illumination (Xenon lamp, halogen lamp with typical endoillumination source and fiber optics). The lens capsule is a very good model for dyeing due to the fact that it is a basal membrane, as is the ILM of the retina. Both structures are important target structures in eye surgery.

In turn, “3,3′-Di-(5-bromodecyl)-1,1,1′,1′-tetramethyl-1H-dibenzo[e]indocarbocyanine bromide [Dye 3x]” displayed a Fluorescence quantum yield in data set [1] of 0.10. The Stability entry in data set [2] was “No decomposition after 4 months”.
For the compound “3,3′-Di-(5-bromopentyl)-1,1,1′,1′-tetramethyl-1H-dibenzo[e]indocarbocyanine bromide [Dye 3y]”, in data set [1], the Fluorescence quantum yield is 0.15. Moreover, in data set [2], the Stability entry is on record as “No decomposition after 4 months”.
In data set [1], “3,3′-Di-(5-brompentyl)-1,1,1′,1′-tetramethyl-1H-disulfobenzo[e]indocarbocyanine bromide [Dye 6h]” yielded a Fluorescence quantum yield of 0.19. In addition, the Stability result in data set [2] is recorded as “Decomposition after a few days”. In addition, the “coloration of lens capsule” value with lens capsule (dye concentration 0.5%) and with lens capsule (dye concentration 1.0) was “decomposed” each time.
`CC1(C)C(/C=C/C=C2\N(CCC(=O)O)c3ccc4ccccc4c3C2(C)C)=[N+](CCC(=O)O)c2ccc3ccccc3c21.[Br-]` [Dye 3a, 3,3′-Di-(2-carboxyethyl)-1,1,1′,1′-tetramethyl-1H-dibenzo[e]indocarbocyanine bromide] gave a Fluorescence quantum yield in data set [1] of 0.35. The “coloration of lens capsule” value is listed as “−” in the data set with lens capsule (dye concentration 0.0025%), “+” in the data set with lens capsule (dye concentration 0.025%), “++” with lens capsule (dye concentration 0.25%) and “++” in the data set on lens capsule (dye concentration 0.5%).
In the case of `CC1(C)C(=CC=CC2=[N+](CCCCC(=O)O)c3ccc4ccccc4c3C2(C)C)N(CCCCC(=O)O)c2ccc3ccccc3c21.[Br-]` [Dye 3b, 3,3′-Di-(4-carboxybutyl)-1,1,1′,1′-tetramethyl-1H-dibenzo[e]indocarbocyanine bromide], in data set [1], the Fluorescence quantum yield is given as 0.49.
In turn, `CC1(C)C(=CC=CC2=[N+](CCCCCC(=O)O)c3ccc4ccccc4c3C2(C)C)N(CCCCCC(=O)O)c2ccc3ccccc3c21.[Br-]` [Dye 3c, 3,3′-Di-(5-carboxypentyl)-1,1,1′,1′-tetramethyl-1H-dibenzo[e]indocarbocyanine bromide] yielded a Fluorescence quantum yield in data set [1] of 0.50. Also, the “coloration of lens capsule” value was “−” with lens capsule (dye concentration 0.0025%), “−” in the data set with lens capsule (dye concentration 0.025%), “+++” in the data set on lens capsule (dye concentration 0.25%) and “+++” in the data set on lens capsule (dye concentration 0.5%).
For `CC1(C)C(=CC=CC2=[N+](CCCCCCCC(=O)O)c3ccc4ccccc4c3C2(C)C)N(CCCCCCCC(=O)O)c2ccc3ccccc3c21.[Br-]` [Dye 3d, 3,3′-Di-(7-carboxyheptyl)-1,1,1′,1′-tetramethyl-1H-dibenzo[e]indocarbocyanine bromide], in data set [1], the Fluorescence quantum yield is on record as 0.43. The “coloration of lens capsule” value is “−” with lens capsule (dye concentration 0.0025%), “−” in the data set on lens capsule (dye concentration 0.025%), “+” in the data set with lens capsule (dye concentration 0.25%) and “+++” in the data set with lens capsule (dye concentration 0.5%).
As to `CC1(C)C(=CC=CC2=[N+](CCCCCCCCCC(=O)O)c3ccc4ccccc4c3C2(C)C)N(CCCCCCCCCC(=O)O)c2ccc3ccccc3c21.[Br-]` [Dye 3e, 3,3′-Di-(9-carboxynonyl)-1,1,1′,1′-tetramethyl-1H-dibenzo[e]indocarbocyanine bromide], in data set [1], the Fluorescence quantum yield is 0.59. Besides, the “coloration of lens capsule” value with lens capsule (dye concentration 0.0025%) is recorded as “−”; with lens capsule (dye concentration 0.025%), “−”; in the data set on lens capsule (dye concentration 0.25%), “++”; in the data set on lens capsule (dye concentration 0.5%), “++”.
The compound `CC1(C)C(=CC=CC2=[N+](CCCCCCCCCCC(=O)O)c3ccc4ccccc4c3C2(C)C)N(CCCCCCCCCCC(=O)O)c2ccc3ccccc3c21.[Br-]` [Dye 3f, 3,3′-Di-(10-carboxydecyl)-1,1,1′,1′-tetramethyl-1H-dibenzo[e]indocarbocyanine bromide] gave a Fluorescence quantum yield in data set [1] of 0.33.
In turn, `CC1(C)C(=CC=CC2=[N+](CCCCCCCCCCCC(=O)O)c3ccc4ccccc4c3C2(C)C)N(CCCCCCCCCCCC(=O)O)c2ccc3ccccc3c21.[Br-]` [Dye 3g, 3,3′-Di-(11-carboxyundecyl)-1,1,1′,1′-tetramethyl-1H-dibenzo[e]indocarbocyanine bromide] gave a Fluorescence quantum yield in data set [1] of 0.35. Also, the “coloration of lens capsule” value is reported as “−” with lens capsule (dye concentration 0.0025%), “−” with lens capsule (dye concentration 0.025%), “++” in the data set on lens capsule (dye concentration 0.25%) and “++” with lens capsule (dye concentration 0.5%).
Consider `COC(=O)CCN1C(=CC=CC2=[N+](CCC(=O)OC)c3ccc4ccccc4c3C2(C)C)C(C)(C)c2c1ccc1ccccc21.[Br-]` [Dye 3h, 3,3′-Di-(2-methoxycarbonylethyl)-1,1,1′,1′-tetramethyl-1H-dibenzo[e]indocarbocyanine bromide], for which the Fluorescence quantum yield in data set [1] worked out at 0.24. Moreover, the “coloration of lens capsule” value in the data set with lens capsule (dye concentration 0.0025%) was “−”; in the data set on lens capsule (dye concentration 0.025%) it was “+”; in the data set on lens capsule (dye concentration 0.25%), “++”; with lens capsule (dye concentration 0.5%), “+++”.
In the case of `COC(=O)CCCCN1C(=CC=CC2=[N+](CCCCC(=O)OC)c3ccc4ccccc4c3C2(C)C)C(C)(C)c2c1ccc1ccccc21.[Br-]` [Dye 3i, 3,3′-Di-(4-methoxycarbonylbutyl)-1,1,1′,1′-tetramethyl-1H-dibenzo[e]indocarbocyanine bromide], the Fluorescence quantum yield in data set [1] came to 0.40. In addition, the “coloration of lens capsule” value was “−” with lens capsule (dye concentration 0.0025%), “+” in the data set with lens capsule (dye concentration 0.025%), “+” with lens capsule (dye concentration 0.25%) and “++” in the data set with lens capsule (dye concentration 0.5%).
Take `COC(=O)CCCCCCCCCN1C(=CC=CC2=[N+](CCCCCCCCCC(=O)OC)c3ccc4ccccc4c3C2(C)C)C(C)(C)c2c1ccc1ccccc21.[Br-]` [Dye 3j, 3,3′-Di-(9-methoxycarbonylnonyl)-1,1,1′,1′-tetramethyl-1H-dibenzo[e]indocarbocyanine bromide]: the Fluorescence quantum yield in data set [1] came to 0.47. Besides, the “coloration of lens capsule” value with lens capsule (dye concentration 0.0025%) was “−”; with lens capsule (dye concentration 0.025%), “−”; in the data set on lens capsule (dye concentration 0.25%), “+”; in the data set on lens capsule (dye concentration 0.5%), “++”.
`COC(=O)CCCCCCCCCCN1C(=CC=CC2=[N+](CCCCCCCCCCC(=O)OC)c3ccc4ccccc4c3C2(C)C)C(C)(C)c2c1ccc1ccccc21.[Br-]` [Dye 3k, 3,3′-Di-(10-methoxycarbonyldecyl)-1,1,1′,1′-tetramethyl-1H-dibenzo[e]indocarbocyanine bromide] came in with a Fluorescence quantum yield in data set [1] of 0.36. For the same compound, the “coloration of lens capsule” value was “−” with lens capsule (dye concentration 0.0025%), “−” with lens capsule (dye concentration 0.025%), “+” in the data set with lens capsule (dye concentration 0.25%) and “++” in the data set on lens capsule (dye concentration 0.5%).
`CCOC(=O)CCN1C(=CC=CC2=[N+](CCC(=O)OCC)c3ccc4ccccc4c3C2(C)C)C(C)(C)c2c1ccc1ccccc21.[Br-]` [Dye 3l, 3,3′-Di-(2-ethoxycarbonylethyl)-1,1,1′,1′-tetramethyl-1H-dibenzo[e]indocarbocyanine bromide] yielded a Fluorescence quantum yield in data set [1] of 0.33. Besides, the “coloration of lens capsule” value was “−” with lens capsule (dye concentration 0.0025%), “+” in the data set with lens capsule (dye concentration 0.025%), “+++” in the data set on lens capsule (dye concentration 0.25%) and “+++” with lens capsule (dye concentration 0.5%).
Take `CCOC(=O)CCCN1C(=CC=CC2=[N+](CCCC(=O)OCC)c3ccc4ccccc4c3C2(C)C)C(C)(C)c2c1ccc1ccccc21.[Br-]` [Dye 3m, 3,3′-Di-(3-ethoxycarbonylpropyl)-1,1,1′,1′-tetramethyl-1H-dibenzo[e]indocarbocyanine bromide]: the Fluorescence quantum yield in data set [1] was 0.61. Further, the “coloration of lens capsule” value with lens capsule (dye concentration 0.0025%) is recorded as “−”; in the data set on lens capsule (dye concentration 0.025%) it was “−”; in the data set on lens capsule (dye concentration 0.25%), “++”; in the data set on lens capsule (dye concentration 0.5%), “+++”.
As for `CCOC(=O)CCCCN1C(=CC=CC2=[N+](CCCCC(=O)OCC)c3ccc4ccccc4c3C2(C)C)C(C)(C)c2c1ccc1ccccc21.[Br-]` [Dye 3n, 3,3′-Di-(4-ethoxycarbonylbutyl)-1,1,1′,1′-tetramethyl-1H-dibenzo[e]indocarbocyanine bromide], in data set [1], the Fluorescence quantum yield is given as 0.43. Also, the “coloration of lens capsule” value in the data set with lens capsule (dye concentration 0.0025%) is “−”; with lens capsule (dye concentration 0.025%), “−”; in the data set with lens capsule (dye concentration 0.25%), “+”; with lens capsule (dye concentration 0.5%) it was “++”.
For the compound `CCOC(=O)CCCCCN1C(=CC=CC2=[N+](CCCCCC(=O)OCC)c3ccc4ccccc4c3C2(C)C)C(C)(C)c2c1ccc1ccccc21.[Br-]` [Dye 3o, 3,3′-Di-(5-ethoxycarbonylpentyl)-1,1,1′,1′-tetramethyl-1H-dibenzo[e]indocarbocyanine bromide], the Fluorescence quantum yield in data set [1] came to 0.36. For the same compound, the “coloration of lens capsule” value is on record as “−” with lens capsule (dye concentration 0.0025%), “−” in the data set with lens capsule (dye concentration 0.025%), “++” with lens capsule (dye concentration 0.25%) and “++” with lens capsule (dye concentration 0.5%).
In data set [1], `CCOC(=O)CCCCCCN1C(=CC=CC2=[N+](CCCCCCC(=O)OCC)c3ccc4ccccc4c3C2(C)C)C(C)(C)c2c1ccc1ccccc21.[Br-]` [Dye 3p, 3,3′-Di-(6-ethoxycarbonylhexyl)-1,1,1′,1′-tetramethyl-1H-dibenzo[e]indocarbocyanine bromide] gave a Fluorescence quantum yield of 0.35.
